Assay results as given in ChEMBL document CHEMBL6096698, “Discovery of a Selective and Orally Bioavailable RET Degrader with Effectiveness in Various Mutations” (J Med Chem, 2025).
Activity calls are given as the source filed them. The rule behind the calls is not given here.

Experiments:
[1] = PROTAC activity at CRBN/KIF5B-RET (unknown origin) expressed in mouse BaF3 cells assessed as induction of RET degradation incubated for 24 hrs by immunoblot analysis; type: cell-based; details: BaF3, 24 h
[2] = test system: BaF3; assay: PROTAC activity at CRBN/KIF5B-RET (unknown origin) expressed in mouse BaF3 cells assessed as induction of RET degradation at 10 nM incubated for 24 hrs by immunoblot analysis relative to control; type: cell-based
[3] = test system: BaF3; assay: Antiproliferative activity against mouse BaF3 cells stably expressing KIF5B-RET G810R mutant incubated for 72 hrs by CCK8 assay; type: functional, cell-based; details: BaF3, 72 h
[4] = test system: BaF3; assay: Antiproliferative activity against mouse BaF3 cells stably expressing CCDC6-RET incubated for 72 hrs by CCK8 assay; type: functional, cell-based; details: BaF3, 72 h
[5] = test system: BaF3; assay: Antiproliferative activity against mouse BaF3 cells stably expressing CCDC6-RET G810C mutant incubated for 72 hrs by CCK8 assay; type: functional, cell-based; details: BaF3, 72 h
[6] = test system: A549; assay: Cytotoxicity against human A549 cells; type: functional, cell-based
[7] = test system: MCF7; assay: Cytotoxicity against human MCF7 cells; type: functional, cell-based
[8] = test system: BaF3; assay: Cytotoxicity against mouse BaF3 cells; type: functional, cell-based
[9] = test system: BaF3; assay: PROTAC activity at CRBN/KIF5B-RET G810C mutant (unknown origin) expressed in mouse BaF3 cells assessed as induction of RET G810C mutant degradation at 1 to 100 nM incubated for 24 hrs by immunoblot analysis relative to control; type: cell-based; details: dose 1-100 nM
[10] = test system: BaF3; assay: PROTAC activity at CRBN/KIF5B-RET (unknown origin) expressed in mouse BaF3 cells assessed as induction of RET degradation at 20 nM incubated for 8 to 24 hrs by immunoblot analysis; type: cell-based; details: time 8-24 hrs
[11] = test system: BaF3; assay: PROTAC activity at CRBN/KIF5B-RET (unknown origin) expressed in mouse BaF3 cells assessed as induction of RET degradation at 10 nM incubated for 24 hrs by immunoblot analysis; type: cell-based
[12] = test system: BaF3; assay: PROTAC activity at CRBN/KIF5B-RET (unknown origin) expressed in mouse BaF3 cells assessed as induction of RET degradation at 10 nM incubated for 24 hrs in presence of MG132 by immunoblot analysis; type: cell-based
[13] = test system: BaF3; assay: PROTAC activity at CRBN/KIF5B-RET (unknown origin) expressed in mouse BaF3 cells assessed as induction of RET degradation at 10 nM incubated for 24 hrs in presence of MLN4924 by immunoblot analysis; type: cell-based
[14] = test system: BaF3; assay: PROTAC activity at CRBN/KIF5B-RET G810C mutant (unknown origin) expressed in mouse BaF3 cells assessed as decrease in Shc activation incubated for 24 hrs by immunoblot analysis; type: cell-based; details: dose 1-50 nM
[15] = Induction of apoptosis in mouse BaF3 cells stably expressing KIF5B-RET G810C mutant assessed as early apoptotic cells at 20 nM incubated for 48 hrs by Annexin V-FITC/PI staining based flow cytometry (reference value: 0.86 %); type: functional
[16] = Induction of apoptosis in mouse BaF3 cells stably expressing KIF5B-RET G810C mutant assessed as necrotic cells at 20 nM incubated for 48 hrs by Annexin V-FITC/PI staining based flow cytometry (reference value: 0.94 %); type: functional
[17] = Induction of apoptosis in mouse BaF3 cells stably expressing KIF5B-RET G810C mutant assessed as viable cells at 40 nM incubated for 48 hrs by Annexin V-FITC/PI staining based flow cytometry (reference value: 92.21 %); type: functional; details: read-out: Activity
[18] = Induction of apoptosis in mouse BaF3 cells stably expressing KIF5B-RET G810C mutant assessed as apoptotic cells at 10 nM incubated for 48 hrs by Annexin V-FITC/PI staining based flow cytometry (reference value: 6.7 %); type: functional
[19] = Induction of apoptosis in mouse BaF3 cells stably expressing KIF5B-RET G810C mutant assessed as apoptotic cells at 20 nM incubated for 48 hrs by Annexin V-FITC/PI staining based flow cytometry (reference value: 6.7 %); type: functional
[20] = Half life in Sprague-Dawley rat at 1 mg/kg, iv measured for 24 hrs by LC-MS/MS analysis; type: ADME, organism-based; details: in vivo
[21] = Tmax in Sprague-Dawley rat at 1 mg/kg, iv measured for 24 hrs by LC-MS/MS analysis; type: ADME, organism-based; details: in vivo
[22] = Cmax in Sprague-Dawley rat at 1 mg/kg, iv measured for 24 hrs by LC-MS/MS analysis; type: ADME, organism-based; details: in vivo
[23] = AUC (0 to infinity) in Sprague-Dawley rat at 1 mg/kg, iv measured for 24 hrs by LC-MS/MS analysis; type: ADME, organism-based; details: in vivo
[24] = Volume of distribution at steady state in Sprague-Dawley rat at 1 mg/kg, iv measured for 24 hrs by LC-MS/MS analysis; type: ADME, organism-based; details: in vivo, read-out: Vdss
[25] = Half life in Sprague-Dawley rat at 10 mg/kg, po measured for 24 hrs by LC-MS/MS analysis; type: ADME, organism-based; details: in vivo
[26] = Tmax in Sprague-Dawley rat at 10 mg/kg, po measured for 24 hrs by LC-MS/MS analysis; type: ADME, organism-based; details: in vivo
[27] = Cmax in Sprague-Dawley rat at 10 mg/kg, po measured for 24 hrs by LC-MS/MS analysis; type: ADME, organism-based; details: in vivo
[28] = AUC (0 to infinity) in Sprague-Dawley rat at 10 mg/kg, po measured for 24 hrs by LC-MS/MS analysis; type: ADME, organism-based; details: in vivo
[29] = test system: BaF3; assay: Antitumor activity against mouse BaF3 cells stably expressing KIF5B-RET G810C mutant implanted in BALB/c nu/nu mouse at 10 mg/kg, po qd treated for 10 days relative to control; type: functional; details: BaF3, 240 h, time 10 day, read-out: TGI
[30] = Oral bioavailability in Sprague-Dawley rat at 10 mg/kg measured for 24 hrs by LC-MS/MS analysis; type: ADME, organism-based; details: in vivo
[31] = test system: BaF3; assay: Antitumor activity against mouse BaF3 cells stably expressing KIF5B-RET G810C mutant implanted in BALB/c nu/nu mouse at 10 mg/kg, po bid treated for 10 days relative to control; type: functional; details: BaF3, 240 h, time 10 day, read-out: TGI
[32] = Toxicity in BALB/c nu/nu mouse implanted with mouse BaF3 cells stably expressing KIF5B-RET G810C mutant assessed as body weight loss at 10 mg/kg, po bid treated for 10 days; type: organism-based; details: in vivo, 240 h, time 10 day
[33] = test system: Kinesin-1 heavy chain/ Tyrosine-protein kinase receptor RET (Homo sapiens), P07949+P33176 [G810C]; assay: In vivo PROTAC activity at CRBN/KIF5B-RET G810C mutant (unknown origin) expressed in mouse BaF3 cells implanted in BALB/c nu/nu mouse assessed as induction of RET G810C mutant degradation at 10 mg/kg, po bid treated for 10 days by Western blot analysis; type: functional, organism-based; details: time 10.0 day
[34] = test system: Kinesin-1 heavy chain/ Tyrosine-protein kinase receptor RET (Homo sapiens), P07949+P33176 [G810C]; assay: In vivo PROTAC activity at CRBN/KIF5B-RET G810C mutant (unknown origin) expressed in mouse BaF3 cells implanted in BALB/c nu/nu mouse assessed as induction of RET G810C mutant degradation at 10 mg/kg, po qd treated for 10 days by Western blot analysis; type: functional, organism-based; details: time 10.0 day

Compound: COc1ccc(CN2C3CC2CN(c2ccc(-c4cc(N5CCC(N6CCN(CCCC#Cc7cccc8c7CN(C7CCC(=O)NC7=O)C8=O)CC6)CC5)cn5ncc(C#N)c45)cn2)C3)cn1 (centres undefined)
- DC50 [1]: 5.6 nM
- Activity [2]: 65%
- IC50 [3]: 165 nM
- IC50 [4]: 2.4 nM
- IC50 [5]: 6.5 nM
- IC50 [6]: > 5000 nM
- IC50 [7]: > 5000 nM
- IC50 [8]: > 5000 nM
- Emax [9]: 91%
- Activity [10]: Active
- Activity [11]: Active
- Activity [12]: inactive
- Activity [13]: inactive
- Activity [14]: Dose-dependent-effect
- Activity [15]: 38.21%
- Activity [16]: 1.01%
- viability at 0.04 µM [17]: 27.9%
- Activity [18]: 34.1%
- Activity [19]: 55.4%
- half-life [20]: 6.98 h
- Tmax [21]: 4.98 min
- Cmax [22]: 121 ng/mL
- AUC(0-inf) [23]: 295 ng·h/mL
- Vd [24]: 31.9 L/kg
- half-life [25]: 8.21 h
- Tmax [26]: 2 h
- Cmax [27]: 161 ng/mL
- AUC(0-inf) [28]: 1190 ng·h/mL
- inhibition in vivo at 10 mg/kg [29]: 62.3%
- bioavailability [30]: 40.3%
- inhibition in vivo at 10 mg/kg [31]: 85.1%
- Activity [32]: Non-toxic
- Activity [33]: Active
- Activity [34]: Active
